Experimental data taken from patent US8431747B2, “Process for the preparation of monomers for polybenzimidazole materials” (E I du Pont de Nemours and Company, priority 2008, dated 2013).
Counter-ions that a name gives are not always drawn.

Assay: solubility of TAT salt in water
Format: physicochemical
Details: 25° C.
Procedure: The reaction mixture containing the precipitated TAT salt is then cooled to about 5° C. to about 15° C. and stirred, then filtered. The TAT salt is then washed 44. It may be washed with deaerated aqueous acid, such as HCl (33%), and then optionally with deaerated ethanol or methanol to produce a wet cake material. The used acid can then be distilled and recycled (31, 30, 33). […] Using an agitated filter unit during the wash procedures can allow for a reduction of the wash volumes. Under such circumstances, using small amounts of cold (e.g., about 5° C.) water instead of the aqueous acid would be effective; cold water would be used because of lower solubility of the TAT salt in cold water versus, e.g., room temperature. For example, the solubility of TAT.4HCl in water at 25° C. is about 16 wt %.

For Cc1c(N)c(N)cc(N)c1N [TAT.4HCl, 2,3,5,6-tetraaminotoluene salt], the solubility in water was “about 16 wt %”.
